17 molecules from patent EP0126483A2, “Deodorant” (Eduard Gerlach GmbH Chemische Fabrik, priority 1983, dated 1984) can be followed below.

Some results are limits rather than exact numbers.

One data set has as its system Achsel- und Fußschweiß. The conditions noted are these: 3 %ige Lösung in Alkohol/Wassergemisch.
Description: Die Wirksamkeit der in der Beschreibung genannte Verbindungen wurde folgendermaßen ermittelt: • 1) Die Versuchspersonen, 10 männliche und 10 weibliche Probanden, benutzten zur Körperreinigung ein von bakteriziden und fungiziden Stoffen freies Duschbad. Die linke Achselhöhle und der linke Fuß, insbesondere die Partien zwischen den Zehen, wurden mit einem Präparat gemäß den Beispielen behandelt. Die rechte Achselhöhle und der rechte Fuß wurden nicht behandelt. Die Prüfung erfolgte nach 12 und 24 Stunden durch die Versuchsansteller, indem jeweils ein geruchsfreies Mullkissen aus 4 Lagen Verbandmull mit den behandelten und unbehandelten Stellen in intensive Berührung durch Reiben gebracht wurde. Anschließend prüften die Tester den Geruch der Kissen selbst. […] Sie wurden verpflichtet, kein anderes desodorierendes Präparat, sei es ein kosmetisches Spezialpräparat oder eine sogenannte "Deo-Seife" zu benutzen.
Consider `CC(C)(CO)C(O)C(=O)NCCCO` (centres unmarked) [Panthenol, N-Propanolamid der 1,3-Dihydroxy-2,2-Dimethylbuttersäure, reference compound], for which the “Desodorierung des Achsel- und Fußschweißes” value was “befriedigende Desodorierung”.

The data set is the same for the next values; noted with them: 3 bis 5 % in a deodorant preparation; time after application.
Take `CC(=O)NCCO` [Essigsäuremonoethanolamid]: the “anhaltender Schutz vor der Bildung unangenehmer Zersetzungsprodukte des Achsel- und Fußschweißes” value is no more than 24 Stunden.

Staying with this data set, now noted: 5 % in Alkohol/Wassergemisch; also in strongly perspiring persons.
Take `CC(C)(CO)C(O)C(=O)NCCCO` (centres unmarked) [Panthenol, N-Propanolamid der 1,3-Dihydroxy-2,2-Dimethylbuttersäure, reference compound]: the “Desodorierung des Achsel- und Fußschweißes” value was “optimal”.

The data set is the same for the next values; noted with them: in vivo.
Regarding `CC(C)(CO)C(O)C(=O)NCCCO` (centres unmarked) [Panthenol, N-Propanolamid der 1,3-Dihydroxy-2,2-Dimethylbuttersäure, reference compound], the Hautfreundlichkeit entry is listed as “hervorragender”.

Staying with this data set, now noted: result in words; concentration not given.
In the case of `NC(=O)NC(N)=O` [Biuret], the “desodorierende Wirksamkeit” value is listed as “Wirksam”. Same read-out and setting: as for `CC(=O)NCCO` [Essigsäuremonoethanolamid], the entry is “besonders kräftiger Wirkstoff”; as for `CC(O)C(=O)NCCO` (centres unmarked) [Ethanolamide der Milchsäure], “Die gleiche Eigenschaft”; as for `CCC(=O)NCCO` [Ethanolamide der Propionsäure], “Die gleiche Eigenschaft”. Still for that read-out and setting: as for `NC(N)=O` [Harnstoff, reference compound], the entry is “mit bestem Erfolg”. Still for that read-out and setting: as for `O=C(O)CNC(=O)c1ccccc1` [Hippursäure], the entry is “Wirksam”. `O=C1CC(=O)NC(=O)N1` [Malonylharnstoff(Barbitursäure), Malonylharnstoff]: the “desodorierende Wirksamkeit” value is “Wirksam”. Still for that read-out and setting: as for `CC(=O)NCC(=O)O` [N-Acetylglycin (Acetursäure), N-Acetylglycin], the entry is “gute Wirkstoffe”; as for `CCOC(N)=O` [Urethan], “Wirksam”; as for `NC(=O)NCCO` [ß-Hydroxiethylharnstoff], “Sehr wirksam”. On the same count and under the same terms, with Ethanolamide der Adipinsäure the entry was “Erfolgreich getestet”; with Ethanolamide der Bernsteinsäure, “Erfolgreich getestet”; with Ethanolamide der Glutarsäure, “Erfolgreich getestet”.

On to Ethanolamide der Malonsäure, for which the “desodorierende Wirksamkeit” value was “Erfolgreich getestet”.

Ethanolamide der Weinsäure: the “desodorierende Wirksamkeit” value is given as “Erfolgreich getestet”. Regarding Ethanolamide der Zitronensäure, the “desodorierende Wirksamkeit” value is on record as “Erfolgreich getestet”.
